Results taken from the supplement of paper PMC10307832.

Tests used:
Test in all cases: relative viability (nuclei count vs DMSO), 5 days (fraction); higher = more cells survive
YM155 + Alpelisib = compound: COCC[n+]1c2c(n(Cc3cnccn3)c1C)C(=O)c1ccccc1C2=O [YM155] + Cc1nc(NC(=O)N2CCC[C@H]2C(N)=O)sc1-c1ccnc(C(C)(C)C(F)(F)F)c1 [Alpelisib] (partner 2 µM)
In short: (§1)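 Five library-drug doses in √10 steps were combined with a fixed anchor-drug dose, or a single drug was given alone, by pin tool to lung cancer cell lines in 1536-well plates the day after seeding. Nuclei were stained and counted after 5 days. Relative viability is the nuclei count in treated wells over that in vehicle wells, taken as the median of duplicate plates.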

YM155 + Tozasertib = compound: COCC[n+]1c2c(n(Cc3cnccn3)c1C)C(=O)c1ccccc1C2=O [YM155] + Cc1cc(Nc2cc(N3CCN(C)CC3)nc(Sc3ccc(NC(=O)C4CC4)cc3)n2)n[nH]1 [Tozasertib] (partner 0.1 µM)
In short: as §1

YM155 + Palbociclib = compound: COCC[n+]1c2c(n(Cc3cnccn3)c1C)C(=O)c1ccccc1C2=O [YM155] + CC(=O)c1c(C)c2cnc(Nc3ccc(N4CCNCC4)cn3)nc2n(C2CCCC2)c1=O [Palbociclib] (partner 0.5 µM)
In short: as §1

YM155 + Phenformin = compound: COCC[n+]1c2c(n(Cc3cnccn3)c1C)C(=O)c1ccccc1C2=O [YM155] + N=C(N)NC(=N)NCCc1ccccc1 [Phenformin] (partner 250 µM)
In short: as §1

Cell Line	relative viability (YM155 + Alpelisib; first compound 0.002 µM)	relative viability (YM155 + Alpelisib; first compound 0.006325 µM)	relative viability (YM155 + Alpelisib; first compound 0.02 µM)	relative viability (YM155 + Alpelisib; first compound 0.06325 µM)	relative viability (YM155 + Tozasertib; first compound 0.002 µM)	relative viability (YM155 + Tozasertib; first compound 0.006325 µM)	relative viability (YM155 + Tozasertib; first compound 0.02 µM)	relative viability (YM155 + Tozasertib; first compound 0.06325 µM)	relative viability (YM155 + Palbociclib; first compound 0.002 µM)	relative viability (YM155 + Palbociclib; first compound 0.006325 µM)	relative viability (YM155 + Palbociclib; first compound 0.02 µM)	relative viability (YM155 + Palbociclib; first compound 0.06325 µM)	relative viability (YM155 + Phenformin; first compound 0.002 µM)	relative viability (YM155 + Phenformin; first compound 0.006325 µM)	relative viability (YM155 + Phenformin; first compound 0.02 µM)	relative viability (YM155 + Phenformin; first compound 0.06325 µM)
201T	1.01	1.03	1.05	1.02	0.916	0.961	0.955	0.974	0.367	0.339	0.361	0.369	0.405	0.443	0.492	0.475
A549	0.673	0.759	0.838	0.35									0.17	0.0769	0.177	0.137
A-427	1.08	1.06	1.09	1.12	0.238	0.191	0.243	0.177	0.532	0.502	0.567	0.293	0.314	0.39	0.365	0.333
ABC-1	0.85	0.368	0.264	0.243	0.163	0.164	0.137	0.151		0.662	0.269	0.283	0.271	0.239	0.233	0.207
BEN	1.1	1.06	0.965	1.13	0.565	0.518	0.587	0.581	0.482	0.412	0.477	0.545	0.28	0.258	0.227	0.266
CAL-12T	1.02	1.29	0.921	0.25	0.311	0.336	0.376	0.149	0.45	0.582	0.489	0.433	0.497	0.607	0.658	0.642
COR-L23	0.646	0.671	0.449	0.154	0.201	0.175	0.133	0.126	0.279	0.272	0.217	0.152	0.399	0.446	0.451	0.393
COR-L 105	1.1	1.3	0.945	0.588	0.345	0.352	0.316	0.327	0.371	0.388	0.424	0.401	0.343	0.462	0.508	0.581
Calu-6	0.937	0.578	0.309	0.252												
ChaGo-K-1					0.22	0.208	0.24	0.236	0.951	0.909	0.881	0.918	0.469	0.488	0.519	0.578
EBC-1	0.786	0.862	0.95	0.9												
EKVX	0.897	0.916	0.859	0.813	0.401	0.411	0.448	0.379	0.386	0.348	0.42	0.215	0.239	0.218	0.24	0.231
EMC-BAC-2	0.735	0.723	0.729	0.719	0.265	0.256	0.273	0.275	0.49	0.514	0.536	0.384	0.463	0.514	0.542	0.568
EPLC-272H	0.917	0.937	0.915	1.02	0.349	0.198	0.449	0.223	0.314	0.27	0.35	0.327	0.347	0.317	0.286	0.304
H3255	0.707	0.658	0.714	0.682	0.68	0.59	0.616	0.351	0.324	0.305	0.351	0.319	0.335	0.336	0.376	0.374
HARA	0.876	0.961	0.842	0.86	0.0954	0.122	0.13	0.121	0.235	0.262	0.328	0.211	0.476	0.444	0.48	0.425
HCC-15	0.96	0.826	0.927	0.879	0.4	0.369	0.472	0.251	0.702	0.854	0.701	0.749	0.465	0.464	0.464	0.494
HCC-44	0.749	0.766	0.813	0.862	1.01	1.01	0.888	0.273	0.975	1.01	0.928	1	0.132	0.283	0.248	0.202
HCC-78	0.341	0.436	0.361	0.438	0.442	0.454	0.52	0.498	0.395	0.43	0.483	0.504	0.638	0.73	0.779	0.76
HCC-366	0.365	0.428	0.375	0.496	0.142	0.136	0.135	0.113	0.37	0.412	0.439	0.27	0.592	0.55	0.628	0.597
HCC-827	0.982	1.04	1.06	0.993	0.421	0.416	0.448	0.475	0.511	0.481	0.505	0.552	0.419	0.404	0.375	0.473
HOP-62	1.14	0.921	0.633	0.775	0.384	0.383	0.391	0.354	0.484	0.441	0.42	0.437	0.566	0.648	0.658	0.6
IA-LM	0.578	0.907	0.738	0.644												
LC-2-ad	0.768	0.977	1	0.392	0.469	0.425	0.438	0.299	0.455	0.485	0.511	0.411	0.528	0.616	0.581	0.535

Cell Line	relative viability (YM155 + Alpelisib; first compound 0.002 µM)	relative viability (YM155 + Alpelisib; first compound 0.006325 µM)	relative viability (YM155 + Alpelisib; first compound 0.02 µM)	relative viability (YM155 + Alpelisib; first compound 0.06325 µM)	relative viability (YM155 + Tozasertib; first compound 0.002 µM)	relative viability (YM155 + Tozasertib; first compound 0.006325 µM)	relative viability (YM155 + Tozasertib; first compound 0.02 µM)	relative viability (YM155 + Tozasertib; first compound 0.06325 µM)	relative viability (YM155 + Palbociclib; first compound 0.002 µM)	relative viability (YM155 + Palbociclib; first compound 0.006325 µM)	relative viability (YM155 + Palbociclib; first compound 0.02 µM)	relative viability (YM155 + Palbociclib; first compound 0.06325 µM)	relative viability (YM155 + Phenformin; first compound 0.002 µM)	relative viability (YM155 + Phenformin; first compound 0.006325 µM)	relative viability (YM155 + Phenformin; first compound 0.02 µM)	relative viability (YM155 + Phenformin; first compound 0.06325 µM)
LCLC-97TM1	0.297	0.228	0.272	0.328	0.197	0.202	0.227	0.22		0.232	0.241	0.19	0.387	0.432	0.407	0.447
LCLC-103H	1	0.997	0.946	1.09	0.569	0.454	0.464	0.487	0.472	0.471	0.491	0.499	0.359	0.314	0.347	0.323
LK-2	1.17	1.05	1.13	1.12	0.154	0.188	0.208	0.203	0.851	0.655	0.632	0.78	0.356	0.571	0.447	0.379
LOU-NH91	0.767	0.674	0.76	0.745	0.667	0.665	0.712	0.603	0.527	0.509	0.628	0.544	0.647	0.783	0.785	0.783
LU99A	0.541	0.453	0.456	0.439	0.26	0.255	0.318	0.265	0.416	0.403	0.388	0.409	0.856	0.883	0.822	0.847
LXF-289	1.02	1.04	0.967	0.939	0.186	0.214	0.205	0.183	0.584	0.628	0.612	0.605	0.522	0.524	0.506	0.532
NCI-H23	0.707	0.669	0.71	0.271	0.373	0.345	0.53	0.286		0.567	0.523	0.388	0.735	0.774	0.729	0.634
NCI-H322M	0.762	0.878	0.666	0.732	0.461	0.496	0.504	0.46	0.433	0.471	0.503	0.473	0.775	0.837	0.849	0.852
NCI-H358	0.801	0.871	0.911	0.283	0.111	0.126	0.103	0.0626	0.129	0.129	0.134	0.157	0.325	0.315	0.37	0.351
NCI-H441	0.733	0.644	0.567	0.429	0.559	0.63	0.645	0.467	0.224	0.202	0.267	0.213	0.776	0.848	0.763	0.865
NCI-H460	0.433	0.498	0.436	0.452	0.604	0.468	0.535	0.413	0.166	0.169	0.226	0.212	0.518	0.531	0.546	0.477
NCI-H520	0.858	1	0.853	0.871	0.432	0.496	0.48	0.377	0.175	0.205	0.238	0.304	0.58	0.535	0.636	0.604
NCI-H522					0.522	0.557	0.599	0.582	1.01	1.01	1.18	1.06	0.67	0.604	0.628	0.659
NCI-H596		0.514	0.499	0.49	0.847	0.811	0.953	1.03					0.65	0.718	0.861	0.741
NCI-H647	0.989	1.11	1.09	0.901	0.317	0.302	0.401	0.303	0.348	0.424	0.423	0.238	0.49	0.636	0.587	0.491
NCI-H650	1.14	1.07	1.15	0.992	0.742	0.686	0.764	0.646	0.314	0.292	0.383	0.31	0.417	0.477	0.523	0.447
NCI-H1299	0.993	1.01	1.05	1.07												
NCI-H1563	0.916	0.977	0.895	0.902									0.632	0.682	0.63	0.65
NCI-H1648					0.386	0.605	0.586	0.427		0.299	0.306	0.295				
NCI-H1650					0.33	0.468	0.485	0.266	0.229	0.347	0.286	0.216	0.356	0.412	0.484	0.557
NCI-H1703	0.292	0.394	0.373	0.339												
NCI-H1792	0.67	0.73	0.703	0.759					0.628	0.685	0.638	0.665			0.285	0.523
NCI-H2342					0.477	0.566	0.541	0.479	0.515	0.496	0.475	0.54	0.581	0.612	0.584	0.65
SW 900					0.816	0.553	0.588	0.45		0.586	0.579	0.608	0.638	0.642	0.674	0.69
